In US5057427A, “Method for resolution of stereoisomers” (Sepracor, Inc., priority 1988, dated 1991):
Structures can show the parent of a compound that is named as a salt. One block for each compound: values may come before it.

How the values were obtained:
[1] = target: T1, Protease VIII: "Subtilopeptidase A" (subtilisin Carlsberg) (Enzyme B) (Bacillus licheniformis, UniProt P00780); assay: Homogeneous aqueous enzymatic resolution (ester hydrolysis) with Enzyme B; format: biochemical; details: for % e.e.: acid product
T1 sequence (P00780 106-379): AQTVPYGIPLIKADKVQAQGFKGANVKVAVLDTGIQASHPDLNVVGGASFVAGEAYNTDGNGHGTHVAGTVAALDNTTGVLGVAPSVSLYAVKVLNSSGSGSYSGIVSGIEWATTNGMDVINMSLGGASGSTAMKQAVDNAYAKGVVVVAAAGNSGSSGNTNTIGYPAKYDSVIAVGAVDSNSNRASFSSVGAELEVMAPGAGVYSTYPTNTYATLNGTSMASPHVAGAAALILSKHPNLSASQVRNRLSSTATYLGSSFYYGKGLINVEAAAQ

[2] = tested on: Protease XXIII: from Aspergillus oryzae (Enzyme A); assay: Homogeneous aqueous enzymatic resolution (ester hydrolysis) with Enzyme A; details: for % e.e.: acid product
Method: 10.0 millimole (mmol) of ibuprofen substrate ester 1 (the methyl sulfonate derivative) was dissolved in 100 ml of 0.2 M phosphate buffer of the appropriate cation (sodium or potassium, to be the same as the substrate counterion) at pH 7.0. 100 mg of enzyme A, as the
commercial preparation, was added directly to this solution, and the reaction mixture was capped and then shaken briefly until all the enzyme preparation had dispersed or dissolved. The reaction mixture was then allowed to stand at ambient temperature (20°-22° C.) for 20 hours. […] The combined organic layers were backwashed twice with one volume of water, once with one volume of saturated NaCl solution, and then dried over MgSO4.
Evaporation of the ether under reduced pressure left the resolved ibuprofen acid product; no other purification was performed. The optical rotation was measured in EtOH at a concentration c=1.0 for the ibuprofen acid product.
In this Example, 0.010 mol of ibuprofen ester 3 (the propyl sulfonate derivative) was dissolved in 100 ml 0.2 M sodium phosphate buffer at pH 7.8, and 150 mg of the commercial enzyme A preparation was added. The reaction was then handled as described for Examples 6.2.1.1-6.2.1.7.
In this Example, 0.010 mol of ibuprofen ester 2 (the ethyl sulfonate ester in the form of its potassium salt) were dissolved in 125 ml of 0.2 M sodium phosphate buffer at pH 7.0, and 150 mg of enzyme A was added to the reaction mixture as the commercially supplied preparation. The reaction was allowed to proceed for 18 hours, and the resulting product mixture was then worked-up as described above for Examples 6.2.1.1-6.2.1.7.
150 mg of Protease XXIII (A), as the commercially available preparation, was added to the reaction mixture, the reaction vessel was capped, and the entire heterogeneous reaction mixture was shaken in a wrist-action shaker for 18 hours. […] This mixture was then extracted twice with 200 ml of diethyl ether. The combined organic layers were backwashed twice with one volume of water, once with one volume of saturated NaCl, and the organic phase was then dried over MgSO4. Evaporation of the ether under reduced pressure left the resolved naproxen acid. No further purification was performed. The optical rotation of the product was measured in CHCl3 at a concentration c=1.0.
0.010 mol of naproxen ester 8 (the potassium salt of the ethyl sulfonate ester) was dispersed in 125 ml of 0.2 M sodium phosphate buffer at pH 7.8. 150 mg of enzyme A, as the commercially available preparation, were added, and the reaction handled as described in Example 6.2.1.1.
0.010 mol of ibuprofen ester 6 (the compound) were dissolved in 100 ml of 0.2 M sodium phosphate buffer at pH 7.0. 100 mg of enzyme A was added as the commercially available preparation, and the reaction handled as described above in Examples 6.2.1.1-6.2.1.7.
2.0 gm (0.0058 mole) of naproxen ester 9 (the sulfomethyl compound) was dissolved in 400 ml of 50 mM sodium phosphate buffer at pH 7.5. To the reaction were added 100 mg of Protease XXIII (A) as the commercially available preparation. After the enzyme had dissolved, the reaction mixture was incubated at 25 degrees for 16 hours. The reaction mixture was then acidified to pH 1-2 by the careful dropwise addition of concentrated HCl, and then it was extracted with ether (3×150 ml). The aqueous layer was retained. The combined organic layers were backwashed with water (2×100 ml), and these aqueous washings were added to the previously retained aqueous layer of the reaction. The ether layer was then washed once with 100 ml of brine, and dried over MgSO4.

Pig Liver Esterase (E) = assay: Homogeneous aqueous enzymatic resolution (ester hydrolysis) with Enzyme E; format: biochemical; details: 30 mg Pig Liver Esterase (E), 0.010 mol ester in 100 ml 0.2 M sodium phosphate buffer pH 7.8
[3] = target: T2, Protease XXVII: "Nagarse" (Enzyme D) (Bacillus amyloliquefaciens, UniProt P00782); assay: Homogeneous aqueous enzymatic resolution (ester hydrolysis) with Enzyme D; format: biochemical; details: 150 mg enzyme D, 0.010 mol ester in 100 ml 0.2 M sodium phosphate buffer pH 7.8
T2 sequence (P00782 108-382): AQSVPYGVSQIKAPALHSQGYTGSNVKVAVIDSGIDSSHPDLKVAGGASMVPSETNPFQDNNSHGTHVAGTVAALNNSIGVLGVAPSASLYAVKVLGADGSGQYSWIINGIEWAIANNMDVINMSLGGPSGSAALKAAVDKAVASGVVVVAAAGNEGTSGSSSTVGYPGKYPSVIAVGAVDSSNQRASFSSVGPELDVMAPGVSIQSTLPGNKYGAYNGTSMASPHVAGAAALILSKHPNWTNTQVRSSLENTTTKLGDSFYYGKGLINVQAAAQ

[4] = target: T3, Protease XVI: from Bacillus subtilis (Enzyme C) (Bacillus subtilis, UniProt P04189); assay: Homogeneous aqueous enzymatic resolution (ester hydrolysis) with Enzyme C; format: biochemical; details: acid product; 100 mg enzyme C, 10 mmol ester in 100 ml 0.2 M phosphate buffer pH 7.0, 20-22° C., 20 hours
T3 sequence (P04189 107-381): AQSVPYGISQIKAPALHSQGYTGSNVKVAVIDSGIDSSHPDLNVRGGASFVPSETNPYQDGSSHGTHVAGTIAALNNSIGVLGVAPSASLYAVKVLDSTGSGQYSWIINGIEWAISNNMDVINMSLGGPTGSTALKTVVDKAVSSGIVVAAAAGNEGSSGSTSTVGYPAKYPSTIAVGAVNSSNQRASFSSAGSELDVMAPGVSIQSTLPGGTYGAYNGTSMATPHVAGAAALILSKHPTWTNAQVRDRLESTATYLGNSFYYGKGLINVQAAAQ

[5] = tested on: protease Prozyme 6 (Enzyme F); assay: Homogeneous aqueous enzymatic resolution (ester hydrolysis) with Enzyme F; format: biochemical, Asperqillus oryzae; details: 100 mg Prozyme 6 (F), 10 mmol ester in 100 ml 0.2 M buffer pH 7.0, 25° C., 18 hours
Method: (Prozyme 6) (F) added. The enzymatic reaction mixtures were capped and briefly shaken until all the substrate had dissolved, and the enzyme had completely dissolved or dispersed. […] Evaporation of the ether left a white solid. Rotations were measured at c=1 in CHCl3.
The enzymatic reaction mixtures were capped and briefly shaken until all the substrate had dissolved, and the enzyme had completely dissolved or dispersed. […] Evaporation of the ether left a white solid. Rotations were measured at c=1 in CHCl3.
The reaction was started by adding 100 mg of the protease (F) from the fungus Asperqillus oryzae (from Amano Enzyme Corporation, Prozyme 6, 60,000 units per mg of solid).
After 20 hours at room temperature, the solution was acidified to pH 2 and extracted with 3 volumes of diethyl ether. The aqueous phase was saved for subsequent workup. The ether phase was washed with two volumes of distilled water and then one volume of saturated sodium chloride, and then it was dried over MgSO4 and subsequently evaporated to dryness. The resolved ibuprofen product recovered was 930 mg of white powder, indicating 45% conversion of racemic ester to acid. The optical rotation was -0.580° (measured at c=1 in ethanol), indicating the R isomer of ibuprofen.
35 mg of protease Enzyme F, as the commercial preparation Prozyme 6, were added to the aqueous solution. The reaction flask was capped, and briefly shaken until all the enzyme had dissolved or dispersed. […] The resulting mixture was diluted with one volume of water and was extracted with diethyl ether (2 times 200 ml). The ether layers were combined and backwashed with water (2 times 200 ml), saturated NaCl solution (200 ml), and then dried over MgSO4.
In this control run, a 0.5 M ester solution of (1) was prepared in 325 ml of 0.1 M sodium phosphate buffer (pH 7.0). The reaction was started by adding 3 gm of the above enzyme (F). The pH was controlled at 7.0 with 8.22 M sodium hydroxide. After 6.49 hours at 30° C., 6.63 ml of hydroxide were added, indicating 37.7% conversion. […]

[6] = cited from earlier work
[7] = 100 mg enzyme B, 10.0 mmol ester in 100 ml 0.2 M Na3 PO4 buffer pH 7.0, 25° C., 18 hours
[8] = 100 mg enzyme A, 10.0 mmol ester in 100 ml 0.2 M buffer pH 7.0, 25° C., 18 hours
[9] = 100 mg enzyme A, 10 mmol ester in 100 ml 0.2 M phosphate buffer pH 7.0, 20-22° C., 20 hours
[10] = 150 mg enzyme B, 0.010 mol ester in 100 ml 0.2 M sodium phosphate buffer pH 7.8
[11] = 150 mg enzyme A, 0.010 mol ester in 100 ml 0.2 M sodium phosphate buffer pH 7.8
[12] = 100 mg enzyme B, 10 mmol ester in 100 ml 0.2 M phosphate buffer pH 7.0, 20-22° C., 20 hours
[13] = 100 mg Protease XXIII (A), pH 7.5, 25 degrees, 16 hours

- % CONVERSION [1, 7]: 26%
- % e.e. [1, 7]: 10%
- % CONVERSION [2, 8]: 53%
- % e.e. [2, 8]: 3%
SMILES: CC(CSC(=O)c1ccccc1)C(=O)OCS(=O)(=O)O (racemic) [Compound 16, Potassium Salt of the Sulfomethyl Ester of (+)-S-3-Benzoylthio-2-methylpropanoic Acid]

- % CONVERSION [2, 9]: 22.3%
- % e.e. [2, 9]: 93.3%
SMILES: CC(C)Cc1ccc(C(C)C(=O)OCCS(=O)(=O)O)cc1 (centres unmarked) [Compound 2, Sodium Salt of 2-Sulfoethyl Ester of 2-(4-Isobutylphenyl)propanoic Acid]

- % CONVERSION (Pig Liver Esterase (E)): 12.1%
- % e.e. (Pig Liver Esterase (E); acid product): 88.0%
- % CONVERSION [3]: 32.0%
- % e.e. ([3]; acid product): 91.0%
- % CONVERSION [1, 10]: 36.4%
- % e.e. [1, 10]: 98.6%
- % CONVERSION [2, 9]: 50.0%
- % CONVERSION [2, 11]: 47.1%
- conversion of the racemic ester to acid ([2]; 1.00 gm protease (A), about 1 M ester, 40 ml, pH 7.0, room temperature, 23.9 hours, by NaOH titration): 29%
- % e.e. [2, 9]: 84.2%
- % e.e. [2, 11]: 97.7%
SMILES: CC(C)Cc1ccc(C(C)C(=O)OCCCS(=O)(=O)O)cc1 (centres unmarked) [Compound 3, Potassium Salt of 3-Sulfopropyl Ester of 2-(4-Isobutylphenyl)propanoic Acid]

- % CONVERSION [1, 12]: 20.0%
- % e.e. [1, 12]: 92.1%
- % CONVERSION [2, 9]: 43.2%
- % e.e. [2, 9]: 97.4%
- % e.e. [4]: 61.7%
SMILES: CC(C)Cc1ccc(C(C)C(=O)OCCCCS(=O)(=O)O)cc1 (centres unmarked) [Compound 4, Potassium Salt of 4-Sulfobutyl Ester of 2-(4-Isobutylphenyl)propanoic Acid]

- % e.e. [4]: 75.6%
SMILES: CC(C)Cc1ccc(C(C)C(=O)OCCOP(=O)(O)O)cc1 (centres unmarked) [Compound 5, Disodium Salt of the Phosphoric Acid Ester of the 2-Hydroxyethyl Ester of 2-(4-Isobutylphenyl)propanoic Acid]

- % CONVERSION [2, 9]: 24.3%
- % e.e. [2, 9]: 96.5%
SMILES: CC(C)Cc1ccc(C(C)C(=O)OCCCOS(=O)(=O)O)cc1 (centres unmarked) [Compound 6, Potassium Salt of the Sulfuric Acid Ester of 3-Hydroxypropyl Ester of 2-(4-Isobutylphenyl)propanoic Acid]

- conversion (enzymatic hydrolysis) ([2]; 100 mg Protease XXIII (A), 2.0 gm ester in 400 ml 50 mM sodium phosphate buffer pH 7.5, 25 degrees, 16 hours): 18%
- enantiomeric excess of R isomer (acid product) [2, 13]: 61.2%
- enantiomeric excess of S isomer (acid from remaining ester after hydrolysis at pH 12) [2, 13]: 45.5%
SMILES: COc1ccc2cc(C(C)C(=O)OCS(=O)(=O)O)ccc2c1 (centres unmarked) [Compound 9, Sodium Salt of Sulfomethyl Ester of 2-(6-Methoxy-2-naphthyl)propanoic Acid]

- % CONVERSION [2, 9]: 30.1%
- % e.e. [2, 9]: > 99%
SMILES: CC(C)Cc1ccc(C(C)C(=O)OCC[N+](C)(C)C)cc1 (centres unmarked) [Compound 10, Iodide Salt of 2-(N,N,N-Trimethylammonium)ethyl Ester of 2-(4-Isobutylphenyl)propanoic Acid]

SMILES: COc1ccc2cc(C(C)C(=O)OCC[N+](C)(C)C)ccc2c1 (centres unmarked) [Compound 11, Methyl Sulfate Salt of 2-(N,N,N-Trimethylammonium)ethyl Ester of 2-(6-Methoxy-2-naphthyl)propanoic Acid]
- % e.e. ([5]; acid product): 34.0%

SMILES: COc1ccc2cc(C(C)C(=O)OCCC[N+](C)(C)C)ccc2c1 (centres unmarked) [Compound 12, Methyl Sulfate Salt of 3-(N,N,N-Trimethylammonium)propyl Ester of 2-(6-Methoxy-2-naphthyl)propanoic Acid]
- % CONVERSION [5]: 34.0%

- conversion as measured by titrimetry (reaction stopped) ([1]; 20 mg subtilisin protease (B), 8.05 gm ester in 300 ml 0.1 M potassium phosphate buffer pH 7.0): 25%
SMILES: CC(Cl)C(=O)OCCCS(=O)(=O)O (centres unmarked) [Compound 13, Potassium Salt of 3-Sulfopropyl Ester of 2-Chloropropanoic Acid]

SMILES: O=C1CCC(N2C(=O)c3ccccc3C2=O)C(=O)N1 [D-enantiomer of thalidomide, thalidomide]
- sedative use ([6]; prescribed for the control of morning sickness during pregnancy): safe and effective sedative

SMILES: O=C1CC[C@H](N2C(=O)c3ccccc3C2=O)C(=O)N1 [L-thalidomide]
- teratogenicity ([6]; in vivo): potent teratogen
